Measured values from US20060148712A1, “Monocyte chemoattractant activity of galectin-3” (priority 2000, published 2006).

Key:
neutrophils = assay: Neutrophil migration; format: cell-based
lymphocytes = assay: Lymphocyte migration in vitro; format: cell-based
CCR-2 = target: T1, CCR-2 (Homo sapiens, UniProt P41597); assay: Immunoprecipitation and immunoblotting with specific antibodies; format: binding
T1 construct: Chemokine receptors expressed on monocytes include CCR-1, CCR-2, CCR-5, and CXCR-4; endogenous in cells

CXCR-4 = target: T2, CXCR-4 (Homo sapiens, UniProt P61073); assay: as above; format: binding
T2 construct: Chemokine receptors expressed on monocytes include CCR-1, CCR-2, CCR-5, and CXCR-4; endogenous in cells

[1] = tested on: human alveolar macrophages; assay: Migration of human alveolar macrophages in vitro; format: cell-based; conditions: two separate experiments; bell-shaped dose-response curves
From the text: Human macrophages were obtained by culturing peripheral blood monocytes in vitro for 7 days as previously described (Fantuzzi, et al., Blood 94:875-83 (1999)). Human alveolar macrophages were obtained from bronchoalveolar lavage (BAL) fluid according to a previously described protocol (Sugimoto et al, Am. Rev. Respir. Dis. 139:1329-35 (1989)). The purity of the macrophages was over 90% and the viability was over 99%.
(§1) Monocyte migration was examined by using 96-well micro Boyden chambers with 5 μm-pore size filters (Neuro Probe, Inc., Gaithersburg, Md.) as described previously (Falk, et al., J. Immunol. Meth. 33:239-47 (1980)), Chertov, et al., J. Biol. Chem. 271:2935-40 (1996)). Briefly, after the indicated concentrations of galectin-3 in RPMI 1640 were applied to the lower chambers, purified monocyte suspensions (2.5-5.0×10^4/well) were applied to the upper chambers. After incubation of the chambers for 1 h in a humidified incubator at 5% CO2 and 37° C., the filters were washed once with PBS and processed with Wright stain. The number of monocytes on the bottom side of the filters was counted in 5 to 10 high-power fields. Monocyte migration was calculated from the average numbers of the counted cells and expressed as % of input cells in a well.

CCR-5 = target: T3, CCR-5 (Homo sapiens, UniProt P51681); assay: Immunoprecipitation and immunoblotting with specific antibodies; format: binding
T3 construct: Chemokine receptors expressed on monocytes include CCR-1, CCR-2, CCR-5, and CXCR-4; endogenous in cells

[2] = tested on: human peripheral blood monocytes; assay: Monocyte migration assay in vitro (96-well micro Boyden chamber); format: cell-based
From the text: Human monocytes were purified from venous blood of normal volunteers essentially as described previously (Nakagawara, et al., J. Clin. Invest. 68:1243-53 (1981)). In brief, after erythrocytes were sedimented by addition of 6% dextran saline solution (I part to 5 parts heparinized blood), the leukocytes were collected, washed twice, and resuspended in Ca^2+ and Mg^2+-free HBSS containing 5% autologous serum. Mononuclear cells were acquired by centrifugation of the leukocyte suspension on Ficoll Paque at 1,500 rpm for 15 min. The cells were resuspended in RPMI 1640 containing 10% autologous serum and allowed to adhere to sterile tissue culture plates for 30 min in a humidified incubator at 5% CO2 and 37° C. After incubation, non-adherent cells were removed by washing the plates three times with PBS at 37° C. […] To detach and harvest the adhered monocytes, 1 mM EDTA-PBS containing 5% serum was added and the plates were incubated on ice for 30 min. The monocytes were washed twice with HBSS and resuspended in RPMI 1640 with 0.1% autologous serum for the migration assay. The viability of monocytes was determined by trypan blue exclusion and was more than 98%. In some experiments, monocytes were purified according to another method using a Percoll discontinuous gradient described previously (Chuluyan & Issekutz, J. Clin. Invest. 92:2768-77 (1993)).
as §1
In assays using inhibitory reagents, the purified monocytes were pretreated with or without the indicated concentrations of B2C10 (Liu, et al., Biochemistry 35:[…] (1996)) or anti-DNP IgG1 (Liu, et al., J. Immunol. 124:2728-31 (1980)) as an isotype-matched control mAb, galectin-3C, or PTX at 37° C. for 30 min. Then the cells were applied to the upper chambers in the presence of these inhibitors at the same concentrations used in the pretreatment. In the assays using lactose and sucrose, the sugars were added to the lower chambers at the initiation of the migration assay.

T1 sequence (P41597 whole entry): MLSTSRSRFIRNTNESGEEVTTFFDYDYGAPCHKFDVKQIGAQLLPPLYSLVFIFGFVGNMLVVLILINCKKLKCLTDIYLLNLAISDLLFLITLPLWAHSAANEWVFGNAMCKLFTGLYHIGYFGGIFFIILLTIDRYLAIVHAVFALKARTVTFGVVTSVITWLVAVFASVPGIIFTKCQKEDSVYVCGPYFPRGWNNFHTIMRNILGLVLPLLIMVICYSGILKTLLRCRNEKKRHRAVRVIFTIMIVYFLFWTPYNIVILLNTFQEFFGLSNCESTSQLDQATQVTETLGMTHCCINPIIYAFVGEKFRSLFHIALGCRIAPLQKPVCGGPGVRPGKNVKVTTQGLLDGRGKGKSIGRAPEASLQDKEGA
T2 sequence (P61073 whole entry): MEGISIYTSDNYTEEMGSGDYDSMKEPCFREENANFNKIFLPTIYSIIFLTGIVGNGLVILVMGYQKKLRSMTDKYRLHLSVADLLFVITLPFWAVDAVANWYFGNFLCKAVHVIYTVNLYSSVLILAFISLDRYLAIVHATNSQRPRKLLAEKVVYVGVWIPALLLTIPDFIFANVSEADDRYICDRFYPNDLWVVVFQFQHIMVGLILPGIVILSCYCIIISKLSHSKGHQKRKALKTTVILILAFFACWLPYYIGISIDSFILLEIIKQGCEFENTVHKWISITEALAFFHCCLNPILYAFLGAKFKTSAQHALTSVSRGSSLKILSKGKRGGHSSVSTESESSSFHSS
T3 sequence (P51681 whole entry): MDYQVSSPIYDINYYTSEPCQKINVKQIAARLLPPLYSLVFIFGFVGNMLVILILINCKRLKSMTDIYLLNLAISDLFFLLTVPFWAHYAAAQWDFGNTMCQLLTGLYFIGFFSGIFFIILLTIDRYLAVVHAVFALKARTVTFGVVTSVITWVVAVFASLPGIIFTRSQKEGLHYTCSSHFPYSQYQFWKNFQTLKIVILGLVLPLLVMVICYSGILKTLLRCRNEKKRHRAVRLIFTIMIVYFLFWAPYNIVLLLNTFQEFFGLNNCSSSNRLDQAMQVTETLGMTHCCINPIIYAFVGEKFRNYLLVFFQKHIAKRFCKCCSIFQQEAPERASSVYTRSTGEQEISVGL

In the case of “galectin-3: Recombinant human galectin-3, a 26 kDa beta-galactoside-binding protein (lectin)”, the “Concentration required for maximum migration of neutrophils compared with monocytes” value (neutrophils) is reported as “Lower concentrations”, the “Migration of lymphocytes in vitro” value (lymphocytes) is reported as “does not induce migration of lymphocytes” and the “Interaction with chemokine receptor” value (CCR-2) is reported as “Neither have interactions between galectin-3 and these four chemokine receptors been detected”. For the same substance, the “Interaction with chemokine receptor” value (CXCR-4) was “Neither have interactions between galectin-3 and these four chemokine receptors been detected”, the “Migration of human alveolar macrophages” value [1] was “migrated towards galectin-3” and the “Interaction with chemokine receptor” value (CCR-5) was “Neither have interactions between galectin-3 and these four chemokine receptors been detected”. For the same substance, the “Monocyte migration (% of input cells)” value ([2]; 10 nM galectin-3, subsequent experiments n=21, control 4.26±1.3%, p<0.001) was 7.01±2.1%, the “Monocyte migration (% of input cells)” value ([2]; 100 nM galectin-3 in lower chamber, n=4 experiments, diluent control 3.54±2.2%) was 6.25±1.3% and the “Monocyte migration (% of input cells)” value ([2]; 300 nM galectin-3 in lower chamber, n=4 experiments, diluent control 3.54±2.2%) was 9.8±0.33%. For the same substance, the “Monocyte migration with galectin-3 in both chambers” value ([2]; 1 μM galectin-3 added to both chambers) was “no significant increase in monocyte migration over the background”, the “Monocyte migration (% of input cells)” value ([2]; 1 μM galectin-3 in lower chamber, n=4 experiments, diluent control 3.54±2.2%) was 12.4±1.2% and the “Effect on monocyte migration compared with MCP-1” value ([2]; 1 μM galectin-3 vs MCP-1 at 100 ng/ml (11.6 nM)) was “comparable to that of human recombinant MCP-1”. For the same substance, the “Monocyte migration (% migrated cells of the total cells)” value ([2]; checkerboard: galectin-3 above 0 nM, below 10 nM) was 8.66 ± 0.22%, the “Monocyte migration (% migrated cells of the total cells)” value ([2]; checkerboard: galectin-3 above 0 nM, below 100 nM) was 9.96 ± 0.72% and the “Monocyte migration (% migrated cells of the total cells)” value ([2]; checkerboard: galectin-3 above 0 nM, below 1000 nM) was 13.1 ± 1.33%. The “Monocyte migration (% migrated cells of the total cells)” value ([2]; checkerboard: galectin-3 above 10 nM, below 0 nM) was 7.55 ± 0.79%, the “Monocyte migration (% migrated cells of the total cells)” value ([2]; checkerboard: galectin-3 above 10 nM, below 10 nM) was 8.88 ± 1.09% and the “Monocyte migration (% migrated cells of the total cells)” value ([2]; checkerboard: galectin-3 above 10 nM, below 100 nM) was 9.23 ± 2.23%. For the same substance, the “Monocyte migration (% migrated cells of the total cells)” value ([2]; checkerboard: galectin-3 above 10 nM, below 1000 nM) was 11.5 ± 3.49%, the “Monocyte migration (% migrated cells of the total cells)” value ([2]; checkerboard: galectin-3 above 100 nM, below 0 nM) was 10.7 ± 0.86% and the “Monocyte migration (% migrated cells of the total cells)” value ([2]; checkerboard: galectin-3 above 100 nM, below 10 nM) was 11.4 ± 2.11%. For the same substance, the “Monocyte migration (% migrated cells of the total cells)” value ([2]; checkerboard: galectin-3 above 100 nM, below 100 nM) was 10.5 ± 2.10%, the “Monocyte migration (% migrated cells of the total cells)” value ([2]; checkerboard: galectin-3 above 100 nM, below 1000 nM) was 12.5 ± 2.87% and the “Monocyte migration (% migrated cells of the total cells)” value ([2]; checkerboard: galectin-3 above 1000 nM, below 0 nM) was 3.30 ± 2.82%. For the same substance, the “Monocyte migration (% migrated cells of the total cells)” value ([2]; checkerboard: galectin-3 above 1000 nM, below 10 nM) was 3.25 ± 3.11%, the “Monocyte migration (% migrated cells of the total cells)” value ([2]; checkerboard: galectin-3 above 1000 nM, below 100 nM) was 4.55 ± 3.69% and the “Monocyte migration (% migrated cells of the total cells)” value ([2]; checkerboard: galectin-3 above 1000 nM, below 1000 nM) was 3.50 ± 2.41%. The “Nature of the effect on monocytes in vitro” value ([2]; high concentrations (1 μM)) was “chemotactic” and the “Nature of the effect on monocytes in vitro” value ([2]; low concentrations (10 and 100 nM)) was “chemokinetic”.
